In patent US10344060B2 (priority 2013, dated 2019):

Legend:
hNav1.7 [1] = target: T1, hNav1.7 (Homo sapiens, UniProt Q15858); assay: cell-based; details: ratio of IonWorks Quattro IC50 values
hNav1.7 [2] = target: T1, hNav1.7; assay: cell-based; assay type: cell-based; details: ratio of PX tonic IC50 values; Table 11

T1 sequence (Q15858 whole entry): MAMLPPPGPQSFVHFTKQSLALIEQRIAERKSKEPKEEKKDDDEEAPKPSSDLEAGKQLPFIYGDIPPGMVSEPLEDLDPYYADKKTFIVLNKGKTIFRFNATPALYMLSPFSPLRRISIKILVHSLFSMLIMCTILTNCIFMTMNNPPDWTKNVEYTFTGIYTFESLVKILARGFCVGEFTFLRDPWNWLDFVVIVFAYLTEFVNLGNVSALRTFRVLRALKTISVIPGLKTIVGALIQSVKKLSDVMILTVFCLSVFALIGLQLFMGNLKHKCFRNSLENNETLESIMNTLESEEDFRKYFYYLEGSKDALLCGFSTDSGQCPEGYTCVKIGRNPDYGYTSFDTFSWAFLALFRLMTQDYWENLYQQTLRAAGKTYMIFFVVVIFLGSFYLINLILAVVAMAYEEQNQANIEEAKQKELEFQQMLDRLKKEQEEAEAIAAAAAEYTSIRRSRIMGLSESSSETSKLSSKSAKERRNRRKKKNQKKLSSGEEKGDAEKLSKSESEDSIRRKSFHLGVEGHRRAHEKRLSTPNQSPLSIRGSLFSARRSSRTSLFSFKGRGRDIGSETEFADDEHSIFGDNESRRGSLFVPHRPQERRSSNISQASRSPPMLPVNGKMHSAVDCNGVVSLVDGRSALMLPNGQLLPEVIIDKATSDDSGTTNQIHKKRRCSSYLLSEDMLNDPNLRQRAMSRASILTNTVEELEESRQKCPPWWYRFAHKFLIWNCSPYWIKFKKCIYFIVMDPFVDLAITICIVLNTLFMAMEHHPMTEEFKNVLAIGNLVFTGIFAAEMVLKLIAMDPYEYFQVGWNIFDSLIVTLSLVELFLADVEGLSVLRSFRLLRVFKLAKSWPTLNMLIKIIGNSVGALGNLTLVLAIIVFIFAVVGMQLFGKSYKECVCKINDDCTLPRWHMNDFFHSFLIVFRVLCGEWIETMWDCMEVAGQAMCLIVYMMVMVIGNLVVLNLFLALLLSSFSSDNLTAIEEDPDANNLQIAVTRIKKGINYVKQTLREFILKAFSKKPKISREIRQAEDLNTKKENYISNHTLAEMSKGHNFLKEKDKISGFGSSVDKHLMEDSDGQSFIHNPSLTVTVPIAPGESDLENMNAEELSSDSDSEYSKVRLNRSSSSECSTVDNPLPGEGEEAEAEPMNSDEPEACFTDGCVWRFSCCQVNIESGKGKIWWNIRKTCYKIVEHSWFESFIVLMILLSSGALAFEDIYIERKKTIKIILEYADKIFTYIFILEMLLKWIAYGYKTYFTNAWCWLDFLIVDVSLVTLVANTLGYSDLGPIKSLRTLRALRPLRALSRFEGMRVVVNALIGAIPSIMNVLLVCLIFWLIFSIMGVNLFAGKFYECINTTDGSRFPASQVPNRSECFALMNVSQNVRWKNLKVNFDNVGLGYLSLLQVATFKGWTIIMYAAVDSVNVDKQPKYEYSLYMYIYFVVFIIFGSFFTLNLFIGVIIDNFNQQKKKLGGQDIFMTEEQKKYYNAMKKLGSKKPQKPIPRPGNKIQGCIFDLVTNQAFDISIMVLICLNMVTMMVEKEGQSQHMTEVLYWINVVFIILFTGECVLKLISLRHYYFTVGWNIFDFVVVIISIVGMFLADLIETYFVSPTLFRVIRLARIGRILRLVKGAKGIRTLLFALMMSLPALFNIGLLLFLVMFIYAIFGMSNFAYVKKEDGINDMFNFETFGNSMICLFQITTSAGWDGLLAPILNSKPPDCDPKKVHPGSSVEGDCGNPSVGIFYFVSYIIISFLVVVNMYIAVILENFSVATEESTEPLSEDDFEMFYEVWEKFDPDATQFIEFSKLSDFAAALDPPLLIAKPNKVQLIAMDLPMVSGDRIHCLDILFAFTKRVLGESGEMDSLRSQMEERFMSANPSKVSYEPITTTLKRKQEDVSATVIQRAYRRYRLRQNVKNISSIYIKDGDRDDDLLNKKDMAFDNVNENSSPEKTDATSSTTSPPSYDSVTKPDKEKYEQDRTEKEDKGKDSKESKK

Row | SMILES | Nav1.4/Nav1.7 (hNav1.7 [1]; Table 8) | Nav1.4/Nav1.7 (hNav1.7 [2]) | Nav1.5/Nav1.7 (hNav1.7 [2]) | Nav1.4/Nav1.7 (hNav1.7 [1]; Nav1.4 over Nav1.7)
1 | CSCC[C@@H]1NC(=O)[C@H](Cc2c[nH]c3ccccc23)NC(=O)[C@H](CCCCN)NC(=O)[C@H](CCC(N)=O)NC(=O)[C@@H](NC(=O)[C@@H](N)Cc2ccc(O)cc2)CSSC[C@@H]2NC(=O)[C@@H]3CSSC[C@@H](C(=O)N[C@@H](CCCNC(=N)N)C(=O)N[C@@H](CCCCN)C(=O)N[C@@H](Cc4ccc(O)cc4)C(=O)N[C@@H](Cc4cccc5ccccc45)C(N)=O)NC(=O)[C@H](Cc4c[nH]c5ccccc45)NC(=O)[C@H](CC(C)C)NC(=O)[C@H](CCCCN)NC(=O)[C@H](CSSC[C@H](NC(=O)[C@H]([C@@H](C)O)NC(=O)[C@H](Cc4c[nH]c5ccccc45)NC1=O)C(=O)N[C@@H](CC(=O)O)C(=O)N[C@@H](CO)C(=O)N[C@@H](CCCCN)C(=O)N[C@@H](CCCNC(=N)N)C(=O)N[C@@H](C)C(=O)N3)NC(=O)[C@H](CCC(=O)O)NC(=O)[C@H](CC(C)C)NC(=O)CNC(=O)[C@H](CCC(=O)O)NC2=O [compound 232] | 91 | 372 | 480 | –
2 | CC[C@H](C)[C@H](NC(=O)[C@H](CC(=O)O)NC(=O)[C@H](CCCCN)NC(=O)[C@H](CCCNC(=N)N)NC(=O)[C@@H]1CSSC[C@@H]2NC(=O)[C@H](C)NC(=O)[C@H](CCCNC(=N)N)NC(=O)[C@H](CCCCN)NC(=O)[C@H](CO)NC(=O)[C@H](CC(=O)O)NC(=O)[C@@H]3CSSC[C@H](NC(=O)[C@H](CCC(=O)O)NC(=O)[C@H](CC(C)C)NC(=O)CNC(=O)[C@H](CCC(=O)O)NC(=O)[C@H](CSSC[C@H](NC(=O)[C@@H](N)Cc4ccc(O)cc4)C(=O)N[C@@H](CCC(N)=O)C(=O)N[C@@H](CCCCN)C(=O)N[C@@H](Cc4c[nH]c5ccccc45)C(=O)N[C@@H](CCSC)C(=O)N[C@@H](Cc4c[nH]c5ccccc45)C(=O)N[C@@H]([C@@H](C)O)C(=O)N3)NC2=O)C(=O)N[C@@H](CCCCN)C(=O)N[C@@H](CC(C)C)C(=O)N[C@@H](Cc2c[nH]c3ccccc23)C(=O)N1)C(N)=O [compound 128] | – | – | – | 4
3 | CC[C@H](C)[C@H](NC(=O)[C@@H](NC(=O)[C@H](CCCCN)NC(=O)[C@H](CCCNC(=N)N)NC(=O)[C@@H]1CSSC[C@@H]2NC(=O)[C@H](C)NC(=O)[C@H](CCCNC(=N)N)NC(=O)[C@H](CCCCN)NC(=O)[C@H](CO)NC(=O)[C@H](CC(=O)O)NC(=O)[C@@H]3CSSC[C@H](NC(=O)[C@H](C(C)C)NC(=O)[C@H](CC(C)C)NC(=O)CNC(=O)[C@H](CCC(=O)O)NC(=O)[C@H](CSSC[C@H](NC(=O)[C@@H](N)Cc4ccc(O)cc4)C(=O)N[C@@H](CCC(N)=O)C(=O)N[C@@H](CCCCN)C(=O)N[C@@H](Cc4c[nH]c5ccccc45)C(=O)N[C@@H](CCSC)C(=O)N[C@@H](Cc4c[nH]c5ccccc45)C(=O)N[C@@H]([C@@H](C)O)C(=O)N3)NC2=O)C(=O)N[C@@H](CCCCN)C(=O)N[C@@H](CC(C)C)C(=O)N[C@@H](Cc2c[nH]c3ccccc23)C(=O)N1)[C@@H](C)CC)C(N)=O [compound 120] | – | – | – | 31
4 | CCC[C@@H]1NC(=O)[C@H](Cc2c[nH]c3ccccc23)NC(=O)[C@H](CCCCN)NC(=O)[C@H](CCC(N)=O)NC(=O)[C@@H](NC(=O)[C@@H](N)Cc2ccc(O)cc2)CSSC[C@@H]2NC(=O)[C@@H]3CSSC[C@@H](C(=O)N[C@@H](CCCNC(=N)N)C(=O)N[C@@H](CCCCN)C(=O)N[C@H](C(=O)N[C@H](C(N)=O)[C@@H](C)CC)[C@@H](C)CC)NC(=O)[C@H](Cc4c[nH]c5ccccc45)NC(=O)[C@H](CC(C)C)NC(=O)[C@H](CCCCN)NC(=O)[C@H](CSSC[C@H](NC(=O)[C@H]([C@@H](C)O)NC(=O)[C@H](Cc4c[nH]c5ccccc45)NC1=O)C(=O)N[C@@H](CC(=O)O)C(=O)N[C@@H](CO)C(=O)N[C@@H](CCCCN)C(=O)N[C@@H](CCCNC(=N)N)C(=O)N[C@@H](C)C(=O)N3)NC(=O)[C@H](CCC(=O)O)NC(=O)[C@H](CC(C)C)NC(=O)CNC(=O)[C@H](CCC(=O)O)NC2=O [compound 111] | – | – | – | 7
5 | CC[C@H](C)[C@H](NC(=O)[C@@H](NC(=O)[C@H](CCCCN)NC(=O)[C@H](CCCNC(=N)N)NC(=O)[C@@H]1CSSC[C@@H]2NC(=O)[C@H](C)NC(=O)[C@H](CCCNC(=N)N)NC(=O)[C@H](CCCCN)NC(=O)[C@H](CO)NC(=O)[C@H](CC(=O)O)NC(=O)[C@@H]3CSSC[C@H](NC(=O)[C@H](CC(=O)O)NC(=O)[C@H](CC(C)C)NC(=O)CNC(=O)[C@H](CCC(=O)O)NC(=O)[C@H](CSSC[C@H](NC(=O)[C@@H](N)Cc4ccc(O)cc4)C(=O)N[C@@H](CCC(N)=O)C(=O)N[C@@H](CCCCN)C(=O)N[C@@H](Cc4c[nH]c5ccccc45)C(=O)N[C@@H](CCSC)C(=O)N[C@@H](Cc4c[nH]c5ccccc45)C(=O)N[C@@H]([C@@H](C)O)C(=O)N3)NC2=O)C(=O)N[C@@H](CCCCN)C(=O)N[C@@H](CC(C)C)C(=O)N[C@@H](Cc2c[nH]c3ccccc23)C(=O)N1)[C@@H](C)CC)C(N)=O [compound 115] | – | 10 | 4 | 53
6 | CC[C@H](C)[C@H](NC(=O)[C@H](CCCNC(N)=O)NC(=O)[C@H](CCCCN)NC(=O)[C@H](CCCNC(=N)N)NC(=O)[C@@H]1CSSC[C@@H]2NC(=O)[C@H](C)NC(=O)[C@H](CCCNC(=N)N)NC(=O)[C@H](CCCCN)NC(=O)[C@H](CO)NC(=O)[C@H](CC(=O)O)NC(=O)[C@@H]3CSSC[C@H](NC(=O)[C@H](CCC(=O)O)NC(=O)[C@H](CC(C)C)NC(=O)CNC(=O)[C@H](CCC(=O)O)NC(=O)[C@H](CSSC[C@H](NC(=O)[C@@H](N)Cc4ccc(O)cc4)C(=O)N[C@@H](CCC(N)=O)C(=O)N[C@@H](CCCCN)C(=O)N[C@@H](Cc4c[nH]c5ccccc45)C(=O)N[C@@H](CCSC)C(=O)N[C@@H](Cc4c[nH]c5ccccc45)C(=O)N[C@@H]([C@@H](C)O)C(=O)N3)NC2=O)C(=O)N[C@@H](CCCCN)C(=O)N[C@@H](CC(C)C)C(=O)N[C@@H](Cc2c[nH]c3ccccc23)C(=O)N1)C(N)=O [compound 135] | – | 1075 | >1786 | 46
7 | CC[C@H](C)[C@H](NC(=O)[C@H](Cc1ccc(O)cc1)NC(=O)[C@H](CCCCN)NC(=O)[C@H](CCCNC(=N)N)NC(=O)[C@@H]1CSSC[C@@H]2NC(=O)[C@H](C)NC(=O)[C@H](CCCNC(=N)N)NC(=O)[C@H](CCCCN)NC(=O)[C@H](CO)NC(=O)[C@H](CC(=O)O)NC(=O)[C@@H]3CSSC[C@H](NC(=O)[C@H](CCC(=O)O)NC(=O)[C@H](CC(C)C)NC(=O)CNC(=O)[C@H](CCC(=O)O)NC(=O)[C@H](CSSC[C@H](NC(=O)[C@@H](N)Cc4ccc(O)cc4)C(=O)N[C@@H](CCC(N)=O)C(=O)N[C@@H](CCCCN)C(=O)N[C@@H](Cc4c[nH]c5ccccc45)C(=O)N[C@@H](CCSC)C(=O)N[C@@H](Cc4c[nH]c5ccccc45)C(=O)N[C@@H]([C@@H](C)O)C(=O)N3)NC2=O)C(=O)N[C@@H](CCCCN)C(=O)N[C@@H](CC(C)C)C(=O)N[C@@H](Cc2c[nH]c3ccccc23)C(=O)N1)C(N)=O [compound 137] | – | 1411 | 12667 | 41
8 | CC[C@H](C)[C@H](NC(=O)[C@H](CC(C)C)NC(=O)[C@H](CCCCN)NC(=O)[C@H](CCCNC(=N)N)NC(=O)[C@@H]1CSSC[C@@H]2NC(=O)[C@H](C)NC(=O)[C@H](CCCNC(=N)N)NC(=O)[C@H](CCCCN)NC(=O)[C@H](CO)NC(=O)[C@H](CC(=O)O)NC(=O)[C@@H]3CSSC[C@H](NC(=O)[C@H](CCC(=O)O)NC(=O)[C@H](CC(C)C)NC(=O)CNC(=O)[C@H](CCC(=O)O)NC(=O)[C@H](CSSC[C@H](NC(=O)[C@@H](N)Cc4ccc(O)cc4)C(=O)N[C@@H](CCC(N)=O)C(=O)N[C@@H](CCCCN)C(=O)N[C@@H](Cc4c[nH]c5ccccc45)C(=O)N[C@@H](CCSC)C(=O)N[C@@H](Cc4c[nH]c5ccccc45)C(=O)N[C@@H]([C@@H](C)O)C(=O)N3)NC2=O)C(=O)N[C@@H](CCCCN)C(=O)N[C@@H](CC(C)C)C(=O)N[C@@H](Cc2c[nH]c3ccccc23)C(=O)N1)C(N)=O [compound 132] | – | – | – | 12
9 | CC[C@H](C)[C@H](NC(=O)[C@@H](NC(=O)[C@H](CCCCN)NC(=O)[C@H](CCCNC(=N)N)NC(=O)[C@@H]1CSSC[C@@H]2NC(=O)[C@H](C)NC(=O)[C@H](CCCNC(=N)N)NC(=O)[C@H](CCCCN)NC(=O)[C@H](CO)NC(=O)[C@H](CC(=O)O)NC(=O)[C@@H]3CSSC[C@H](NC(=O)[C@H](Cc4ccc(C(=O)O)cc4)NC(=O)[C@H](CC(C)C)NC(=O)CNC(=O)[C@H](CCC(=O)O)NC(=O)[C@H](CSSC[C@H](NC(=O)[C@@H](N)Cc4ccc(O)cc4)C(=O)N[C@@H](CCC(N)=O)C(=O)N[C@@H](CCCCN)C(=O)N[C@@H](Cc4c[nH]c5ccccc45)C(=O)N[C@@H](CCSC)C(=O)N[C@@H](Cc4c[nH]c5ccccc45)C(=O)N[C@@H]([C@@H](C)O)C(=O)N3)NC2=O)C(=O)N[C@@H](CCCCN)C(=O)N[C@@H](CC(C)C)C(=O)N[C@@H](Cc2c[nH]c3ccccc23)C(=O)N1)[C@@H](C)CC)C(N)=O [compound 114] | – | – | – | 24
10 | CC[C@H](C)[C@H](NC(=O)[C@H](Cc1ccc(O)cc1)NC(=O)[C@H](CCCCN)NC(=O)[C@H](CCCNC(=N)N)NC(=O)[C@@H]1CSSC[C@@H]2NC(=O)[C@H](C)NC(=O)[C@H](CCCNC(=N)N)NC(=O)[C@H](CCCCN)NC(=O)[C@H](CO)NC(=O)[C@H](CC(=O)O)NC(=O)[C@@H]3CSSC[C@H](NC(=O)[C@H](CCCNC(=N)N)NC(=O)[C@H](CC(C)C)NC(=O)CNC(=O)[C@H](CCC(=O)O)NC(=O)[C@H](CSSC[C@H](NC(=O)[C@@H](N)CCC(=O)O)C(=O)N[C@@H](CCC(N)=O)C(=O)N[C@@H](CCCCN)C(=O)N[C@@H](Cc4c[nH]c5ccccc45)C(=O)N[C@@H](CCSC)C(=O)N[C@@H](Cc4c[nH]c5ccccc45)C(=O)N[C@@H]([C@@H](C)O)C(=O)N3)NC2=O)C(=O)N[C@@H](CCCCN)C(=O)N[C@@H](CC(C)C)C(=O)N[C@@H](Cc2c[nH]c3ccccc23)C(=O)N1)C(N)=O [compound 278] | 16 | – | – | –
